Data set [1] deals with human PBMCs. Nature of the data set: PBMC proliferation, MTT assay. The following applies: purified 14-3-3ζ 300 ng/ml and 1000 ng/ml, by 8 d; PHA 1% positive control. Type of data set: cell-based. As for the experimental part: Blood from healthy donors was collected as per the approved IRB protocol. The protocol for isolation of PBMCs was previously reported. In short, whole blood was diluted with an equal volume of RPMI before layering on Ficoll-Paque PLUS in a 15 mL tube. Tubes were then centrifuged for 25 minutes with the brakes off at 950 g. PBMCs were collected from the layer between the plasma and Ficoll liquid. PBMCs were then washed twice with RPMI, with 7 min spins at 350×g to pellet the cells. Finally, cells were resuspended in complete RPMI before counting and plating. […] Phytohemagglutinin (PHA) was used as a positive control. 10 μl MTT was added at a concentration of 5 mg/mL, and the plate was further incubated at 37° C. in the dark for 3 hours. Supernatant was then removed, and 100 μL DMSO was added for another hour before reading the absorbance at 570 nm using FLUOstar Omega microplate reader (BMG Labtech). For T cell differentiation, PBMCs were incubated with 1 μg/ml of 14-3-3ζ for 7 days followed by either the cellular staining for FACS analysis or ELISPOT as per manufacture's protocol.
(In general: Formazan colour is commonly taken as a measure of viable cells.)

The test system of data set [2] is human PBMCs. Description: T cell polarization of PBMCs by flow cytometry (CD4, CD366, IL-17, CD8, CD69). Type of data set: cell-based. As to the method: Cells were plated with 14-3-3ζ protein in a 96-well plate for 14 days at 37° C. in complete RPMI culture medium. Phytohemagglutinin (PHA) was used as a positive control. 10 μl MTT was added at a concentration of 5 mg/mL, and the plate was further incubated at 37° C. in the dark for 3 hours. Supernatant was then removed, and 100 μL DMSO was added for another hour before reading the absorbance at 570 nm using FLUOstar Omega microplate reader (BMG Labtech). For T cell differentiation, PBMCs were incubated with 1 μg/ml of 14-3-3ζ for 7 days followed by either the cellular staining for FACS analysis or ELISPOT as per manufacture's protocol. […] PBMCs incubated with 14-3-3ζ for 7 days at 37° C. were fixed in 2% paraformaldehyde for an hour, and washed with PBS. […] For surface staining, cells were stained in 50 μL PBS with 5 μl per million cells antibody for 30 minutes in the dark on ice. For intracellular staining, cells were permeabilized with Triton for 10-15 min. After staining, cells were washed with PBS and resuspended in 1 mL PBS for analysis. The following antibodies from Biolegend Inc. were used: […] Cells were sorted at FACSCanto II system (BD Biosciences) and analyzed using FlowJo software (version 10). A gate was created around an initial population of cells in the FSC-SSC plot, and this population of cells was further analyzed for CD4, CD366, and IL-17 expression. Unstained and isotype labelled cells were used as a control for setting the gates.
For orientation: Flow cytometry measures light scatter and fluorescence of single cells or particles in a stream.

Data set [3] concerns human PBMCs. Nature of the data set: ELISPOT assay of IFN-γ and IL-17 secreting cells. Type of data set: cell-based. As to the method: Cells were plated with 14-3-3ζ protein in a 96-well plate for 14 days at 37° C. in complete RPMI culture medium. Phytohemagglutinin (PHA) was used as a positive control. 10 μl MTT was added at a concentration of 5 mg/mL, and the plate was further incubated at 37° C. in the dark for 3 hours. Supernatant was then removed, and 100 μL DMSO was added for another hour before reading the absorbance at 570 nm using FLUOstar Omega microplate reader (BMG Labtech). For T cell differentiation, PBMCs were incubated with 1 μg/ml of 14-3-3ζ for 7 days followed by either the cellular staining for FACS analysis or ELISPOT as per manufacture's protocol. For testing the effect of drugs, prednisolone, prednisone, as well as TJU103, were used at 1 μg/ml concentration and cyclophosphamide was used at 0.1 μg/ml concentration.
The protocol was adopted from Immunospot kit from Cellular Technology Limited. In short, PBMCs incubated with 14-3-3ζ for 7 days were plated on the antibody coated ELISPOT plates. About 100,000 cells/well were added and incubated for 2 days at 37° C. followed by the developing protocol. Plates were read with a Quantihub ELISPOT plate reader and manually counted.

The test system of data set [4] is human PBMCs. Nature of the data set: ELISA of secreted (accumulated) cytokines of PBMCs. The format is cell-based. To be noted: PBMC in the presence of 14-3-3ζ. Background: An ELISA detects its analyte on a solid surface through an enzyme-linked reagent.
The next data set concerns Lewis rats. Nature of the data set: Pristane-induced arthritis (PIA) model, immunization with 14-3-3ζ in IFA. The format is in vivo, rat. As for the experimental part:
FIG. 12A depicts the process used for this example for evaluating the prevention of RA in rats. All animals were injected with 150 μl of Pristane subcutaneously at the root of the tail followed by injecting either 1 mg/kg of IFA mixed with 14-3-3ζ protein or IFA alone the next day. Additional injection of either IFA alone or mixed with 14-3-3ζ proteins were given after one week. Animals were evaluated twice every week. Each joint (20 per paw, total of 80 per animal) was scored for inflammation. Both male and female rats were equally divided (n=6-8) between IFA and 14-3-3ζ treated sets. Rats were euthanized at 43 d and blood was collected for analysis.
Exposure to 14-3-3ζ generates a strong immune response in Lewis rats. Due to highly reproducible induction of severe inflammation and chronic arthritis, PIA is a one of the standard models to investigate rheumatoid arthritis an autoimmune disease. Intradermal injection of Pristane leads to a strong T-cell infiltration, followed by a cytokine increase as well as visual manifestation of joint inflammation, prominently observed in the Lewis rats. To test the antigenic role of 14-3-3ζ in vivo, purified 14-3-3ζ protein was injected along with IFA one day after the animals were treated with Pristane (FIG. 12A).
The animals were immunized with either IFA alone, or mixed with 14-3-3ζ (IFA+Z, 1 mg/kg) at 1 and 7 d-post pristine injection. Animals were monitored and scored for RA.

The subject of data set [5] is PBMC isolated from normal Lewis rats. Description: Proliferation of rat PBMC incubated ex vivo. Type of data set: cell-based. The following applies: incubated with 14-3-3ζ ex vivo.
The test system of the next data set is rats. Nature of the data set: Immunization of rats with IFA and 14-3-3ζ without pristane. The format is in vivo, rat. The following applies: pristane absent.
The test system of a further data set is 14-3-3ζ KO rats. Nature of the data set: Pristane-induced arthritis in 14-3-3ζ KO rats, 14-3-3ζ immunization. Type of data set: in vivo, rat. The following applies: IFA+14-3-3ζ vs IFA, days post-pristane. The source says:
FIGS. 16A-16B, to determine whether 14-3-3ζ is sufficient for RA suppression, 14-3-3ζ KO rats that are more susceptible to RA were used.

The test system of data set [6] is human PBMCs. Nature of the data set: T cell polarization of PBMCs by flow cytometry (CD4, CD366, IL-17, CD8, CD69). To be noted: incubated with 14-3-3ζ, 3 d. Type of data set: cell-based.
The mark [7] stands for this setting: PIA treated Lewis rats immunized with 14-3-3ζ.

Entries after “also recorded” stand apart in the source; their conditions may differ.

Take “14-3-3ζ: human 14-3-3ζ protein, SEQ ID NO: 1, purified from E. coli; injected mixed with IFA in rats”: the “PBMC proliferation (MTT assay)” value with human PBMCs [1] was “promoted; also recorded: strong proliferation induction; also recorded: comparable and dose-dependent effect”. The “CD8+ cells (total number or activation)” value in the data set with human PBMCs [2] (14-3-3ζ treated PBMC) was “No significant increase; also recorded: No change; also recorded: no significant effect”. Further, in the data set on human PBMCs [2] (14-3-3ζ treated PBMC, 7 d), the “total number of CD4+ cells” value is listed as “no significant change”. For the same substance, the “CD4 cells positive for both CD366 and IL-17 (minor population <1%)” value with human PBMCs [2] (presence of 14-3-3ζ) is recorded as “unchanged”. For the same substance, the “CD366 or IL-17 positive CD4 cells (Th1, Th17)” value in the data set on human PBMCs [2] (protein 1 μg/ml, 7 d) is “more CD366 or IL-17 positive CD4 cells; also recorded: significant increase”. In the data set with human PBMCs [3] (FIG. 6B and FIG. 12L), the “level of IFN-γ (number of IFN-γ colonies) compared with 14-3-3ε” value is reported as “significantly more than 14-3-3ε”. Moreover, the “number of IFN-γ and IL-17 secreting cells” value in the data set with human PBMCs [3] (PBMC treated with protein for 7 d) is on record as “robust response; also recorded: robust increase”. Besides, in the data set with human PBMCs [4], the IL-6 level entry was “no significant effect”, the “accumulated secreted IL-17 (IL-17A)” value was “significant increased accumulation” and the “levels of IL-10 or IL-12” value is reported as “no effect”. Moreover, the “joint inflammation / arthritis (RA) score” value in the data set on Lewis rats (Lewis rats, pristane, 14-3-3ζ 1 mg/kg mixed with IFA at 1 and 7 d post pristane, compared to IFA alone, 1 mg/kg) is reported as “protection against rheumatoid arthritis; also recorded: protection against the arthritis; also recorded: significantly less inflammation of joints; also recorded: significant reduction of RA scores; also recorded: absent; also recorded: relatively stronger inflammation in IFA treatment compared to 14-3-3ζ treatment; also recorded: no sign of arthritis; also recorded: prevents the development of RA”. Moreover, in the data set on Lewis rats (setting [7]), the “increase in the level of IFN-γ in the circulating sera” value was 10 to 15 folds, the “increase in the level of IL-17 in the circulating sera” value lay within 10 to 15 folds and the “increase in the level of anti-14-3-3ζ IgG in the circulating sera” value was 10 to 15 folds. In the data set on Lewis rats (compared to IFA alone), the “anti-14-3-3ζ antibody level (sera, synovial fluid)” value was “significant production of anti-14-3-3ζ IgG; also recorded: significantly higher levels; also recorded: increased 14-3-3ζ antibody levels”; the “circulating (sera) IFN-γ level” value is on record as “significantly higher levels; also recorded: much higher levels”; the “circulating IL-17 level” value is recorded as “significantly higher levels”. In addition, the “H&E stain: immune cell infiltration and tissue damage” value in the data set on Lewis rats (compared to IFA treated animal) was “lesser sign of inflammation and damage”. In addition, the “rat PBMC proliferation” value in data set [5] is recorded as “increased proliferation”. Besides, the “induction of RA pathology (pathogenicity)” value in the data set with rats (IFA and 14-3-3ζ) was “no significant induction of RA pathology”. Besides, in the data set with rats, the “immunogenicity: 14-3-3ζ antibody generation and IL-17 induction” value is 14-3-3ζ antibody generation and IL-17 induction. Further, in the data set with 14-3-3ζ KO rats, the RA score entry is recorded as “suppressed the RA” and the body weight entry is recorded as “gain in body weights”. In addition, the “CD69 expression on T cells (CD4 cells)” value in the data set with human PBMCs [6] was “increases CD69 expression; also recorded: increased; also recorded: strong impact”.

For the origin of these results see patent US12226449B2, “Materials and methods for the prevention of rheumatoid arthritis” (The University of Toledo, priority 2018, dated 2025).
